Measured values from ChEMBL document CHEMBL1144678, “Thiahomoisocitrate: a highly potent inhibitor of homoisocitrate dehydrogenase involved in the alpha-aminoadipate pathway” (Bioorg Med Chem, 2008).

Key:
[1] = Inhibition of Saccharomyces cerevisiae homoisocitrate dehydrogenase
[2] = system: Saccharomyces cerevisiae; assay: Activity of Saccharomyces cerevisiae homoisocitrate dehydrogenase

Row | Ki [1] | Km [2] | kcat [2] | Compound
1 | 10 µM | 20 µM | 0.59 s⁻¹ | O=C(O)CO[C@H](C(=O)O)[C@@H](O)C(=O)O
2 | – | 150 µM | 2 s⁻¹ | O=C(O)CN[C@H](C(=O)O)[C@@H](O)C(=O)O
3 | 12 µM | – | – | O=C(O)CSCC(=O)C(=O)O
4 | 0.097 µM | – | – | O=C(O)CS[C@H](C(=O)O)[C@@H](O)C(=O)O
